Laboratory results published in patent US5789377A (priority 1995, dated 1998).
Like-named read-outs stand apart in the source and are kept apart here.

Legend:
Assay type in all cases: cell-based
[1] = test system: RAW cells; assay: RAW cell viability by Trypan blue exclusion; details: up to 50 μg peptide
[2] = test system: E. coli
Experimental: (§1) The minimum inhibitory concentrations (MIC) of CEME, CEMA and melittin were determined for a number of different bacteria (Table 2). Briefly, cells were grown overnight at 37° C. in LB-S (Luria broth without any salt supplement) and diluted one in 10,000 in the same medium to give concentrations of about 10^4 to 10^5 CFU/ml. The broth dilutions were set up in a 96 well microtiter plate by putting 200 μl of LB-S containing the initial concentration of antibiotic or compound in column 1 and 100 μl of the same medium in columns 2-12. The compounds were diluted by taking 100 μl of broth from column 1 and mixing it with column 2, resulting in a one in two dilution. This was continued to column 10. Finally, 10 μl of bacteria were pipetted into columns 1-11, and the plates incubated overnight at 37° C. The next day the plates were scored for growth in the wells, and the MIC determined.

[3] = test system: P. aeruginosa; details: fragments of CEMA
Experimental: as §1

[4] = test system: S. aureus; details: fragments of CEMA
Experimental: as §1

[5] = test system: Candida albicans; assay: MIC broth dilution; details: fragments of CEMA
Experimental: as §1
Consequently, although CEMA is an effective antimicrobial agent, the individual fragments have no antimicrobial (or anti-fungal) activity.

[6] = test system: E. coli strain DC2; assay: gel overlay antibacterial activity assay; details: gel overlaid with ≈10^5 E. coli strain DC2, overnight at 37° C.
Experimental: A sample of the partially purified CEME protein was electrophoresed on a 15% acid-urea gel, which separates proteins based on charge and mass (Panyim and Chalkey, Arch. Biochem. Biophys., 130:337, 1969). The pH of the buffer is acidic (=pH 5.0) and the polarity is reversed such that proteins migrate to the cathode. Therefore, the small cationic peptides run relatively quickly through the gel and thus can be easily identified. Antibacterial activity was tested as previously described (Hultmark, Eur. J. Biochem., 106:7, 1980). The gel was incubated in Mueller Hinton broth+0.2M NaPO4 pH 7.4 for 1 hr. It was overlaid with 5 mls of the same media containing 0.6% agar and ≈10^5 E. coli strain DC2, and then again with 5 ml of the same media containing only 0.6% agar. […] Melittin is used as a positive control due to its antibacterial activity and similarity in size and PI values.

[7] = test system: P. AERUGINOSA H309; assay: lysozyme lysis assay (membrane permeabilization); details: 50 μg/ml lysozyme, decrease in OD600, FIG. 5
Experimental: Membrane permeabilization by polycationic compounds was measured in two different assays. The first assay measured membrane disruption by the ability of lysozyme to reach the periplasm and cause cell lysis. […] The uptake of lysozyme into whole cells due to membrane permeabilization by various compounds was previously described in Hancock, et al., Antimicrobial Agents and Chemo., 19:777, 1981. Overnight cultures of P. aeruginosa H309 or E. cloacae 218R1 grown in LB-S were diluted 1 in 50 in fresh medium and grown to an OD600 =0.5-0.6. The cells were harvested in a Silencer H-103N clinical centrifuge at 1800 g for 10 min, washed once with one volume of assay buffer (5 mM HEPES pH 7.2, 5 mM KCN), and resuspended in the same buffer to an OD600 of 0.5. Assays consisted of 600 μl of cells with 50 μg/ml of chicken egg white lysozyme and varying concentrations of cationic compounds. Cell lysis was measured as a decrease in the OD600 in a Perkin-Elmer dual beam spectrophotometer. Parallel experiments performed without lysozyme enabled the measurement of the lytic activity of the compounds themselves. To test whether or not permeability to lysozyme could be inhibited by divalent cations, various concentrations of MgCl2 were added to the assay after the addition of lysozyme and before the addition of the test compound.

[8] = test system: P. AERUGINOSA H309; assay: 1-N-phenylnaphthylamine (NPN) uptake assay; details: 10 μM NPN, fluorescence, FIG. 7
Excerpt: (§2) The second assay determined membrane permeability by the ability of 1-N-phenylnaphthylamine (NPN), a small fluorescent probe, to insert itself into the membrane. Normally, very little NPN can penetrate the outer membrane, but in the presence of a membrane permeabilizer it can insert into the hydrophobic membrane resulting in an increase in fluorescence (FIGS. 7 and 8). This N-phenylnaphthylamine uptake assay was previously described by Loh, et al., Antimicrobial Agents and Chemo., 26:546, 1984. Cells were prepared exactly the same as for the lysozyme lysis assay. 1-N-phenylnaphthylamine (NPN) was dissolved in acetone at a concentration of 500 μM. NPN fluorescence was measured in a Perkin-Elmer 650-10S fluorescent spectrophotometer using excitation and emission wavelengths set to 350 nm and 420 nm respectively, with slit widths of 5 nm. The assay was standardized by adding 20 μl of NPN (final concentration of 10 μM) and 10 μl of 0.64 mg/ml of polymyxin B (final concentration of 6.4 μg/ml) into 1 ml of cells, and adjusting the resulting fluorescence to read 90% deflection (90 arbitrary units). Various compounds were tested by adding 10 μl of different concentrations to a cuvette containing 1 ml of cells and 10 μM NPN. Permeabilizing activity was designated as the total fluorescence minus the fluorescence due to NPN alone. Following the fluorescence measurement, the OD600 of the cells was taken to ensure no significant cell lysis had occurred.

[9] = test system: E. cloacae; details: strain 218R1, β-lactam resistant
Experimental: as §1

[10] = test system: S. typhimurium
Experimental: as §1

[11] = test system: E. cloacae 218R1; assay: 1-N-phenylnaphthylamine (NPN) uptake assay; details: 10 μM NPN, fluorescence, FIG. 8
Excerpt: as §2

[12] = strain DC2, Polymyxin sensitive
[13] = strain SC9251, Parent of SC9252
[14] = strain SC9252, Polymyxin resistant
[15] = strain C590, Defensin sensitive

Row | Compound | opening up the membrane to NPN [8] | MIC [9] [µg/mL] | MIC [2, 12] [µg/mL] | MIC [2, 13] [µg/mL] | MIC [2, 14] [µg/mL] | MIC ([10]; strain C587, Parent of C590) [µg/mL] | MIC [10, 15] [µg/mL] | also measured
1 | CC[C@H](C)[C@H](NC(=O)CNC(=O)[C@@H](NC(=O)[C@H](CCCCN)NC(=O)[C@H](CCCCN)NC(=O)[C@H](Cc1ccccc1)NC(=O)[C@H](CC(C)C)NC(=O)[C@H](CCCCN)NC(=O)[C@H](Cc1c[nH]c2ccccc12)NC(=O)[C@@H](N)CCCCN)[C@@H](C)CC)C(=O)NCC(=O)N[C@@H](C)C(=O)N[C@H](C(=O)N[C@@H](CC(C)C)C(=O)N[C@@H](CCCCN)C(=O)N[C@H](C(=O)N[C@@H](CC(C)C)C(=O)N[C@H](C(=O)N[C@H](C(=O)NCC(=O)N[C@@H](CC(C)C)C(=O)N1CCC[C@H]1C(=O)N[C@@H](C)C(=O)N[C@@H](CC(C)C)C(=O)N[C@@H](CCCCN)C(=O)N[C@@H](CC(C)C)C(=O)N[C@H](C(=O)N[C@@H](CCCCN)C(=O)O)[C@@H](C)O)[C@@H](C)O)[C@@H](C)O)C(C)C)C(C)C [CEMA] |  |  |  |  |  |  |  | RAW cell viability [1]: no apparent decrease
2 | CC[C@H](C)[C@H](NC(=O)CN)C(=O)NCC(=O)N[C@@H](C)C(=O)N[C@H](C(=O)N[C@@H](CC(C)C)C(=O)N[C@@H](CCCCN)C(=O)N[C@H](C(=O)N[C@@H](CC(C)C)C(=O)N[C@H](C(=O)N[C@H](C(=O)NCC(=O)N[C@@H](CC(C)C)C(=O)N1CCC[C@H]1C(=O)N[C@@H](C)C(=O)N[C@@H](CC(C)C)C(=O)N[C@@H](CCCCN)C(=O)N[C@@H](CC(C)C)C(=O)N[C@H](C(=O)N[C@@H](CCCCN)C(=O)O)[C@@H](C)O)[C@@H](C)O)[C@@H](C)O)C(C)C)C(C)C [MA] |  |  |  |  |  |  |  | MIC ([2]; E. coli, fragments of CEMA): greater than 64 ug/ml; MIC [3]: greater than 64 ug/ml; MIC [4]: greater than 64 ug/ml; MIC [5]: greater than 64 ug/ml
3 | CC[C@H](C)[C@H](NC(=O)CN)C(=O)NCC(=O)N[C@@H](C)C(=O)N[C@H](C(=O)N[C@@H](CC(C)C)C(=O)N[C@@H](CCCCN)C(=O)N[C@H](C(=O)N[C@@H](CC(C)C)C(=O)N[C@H](C(=O)N[C@H](C(=O)NCC(=O)N[C@@H](CC(C)C)C(=O)N1CCC[C@H]1C(=O)N[C@@H](C)C(=O)N[C@@H](CC(C)C)C(=O)N[C@H](C(=O)N[C@@H](CO)C(=O)N[C@@H](Cc1c[nH]c2ccccc12)C(=O)N[C@H](C(=O)N[C@@H](CCCCN)C(=O)N[C@@H](CCCNC(=N)N)C(=O)N[C@@H](CCCCN)C(=O)N[C@@H](CCCNC(=N)N)C(=O)N[C@@H](CCC(N)=O)C(=O)N[C@@H](CCC(N)=O)C(N)=O)[C@@H](C)CC)[C@@H](C)CC)[C@@H](C)O)[C@@H](C)O)C(C)C)C(C)C [MEL, melittin] | less active |  |  |  |  |  |  | zones of clearing on overlaid acid-urea gel [6]: zones of clearing; permeabilization of outer membrane to lysozyme [7]: did not appear to be a good permeabilizer as compared to the other peptides
4 | gentamicin [GM] |  | 0.5 | 0.5 | 2 | 4 | 4 | 2 | 
5 | polymyxin B [PX] | equally active | 0.5 | 0.06 | 0.06 | 4 | 1 | 0.25 | opening up the membrane to NPN [11]: equally active
